Measurements from PubChem BioAssay AID2060908 (Molecular Pharmacology Branch, DTP, NCI, 2025).

System: 186277-243-T-J2-PDC complex spheroids, viability
Test: Anticancer human tumor 186277-243-T-J2-PDC patient-derived colon adenocarcinoma cell line growth inhibition [RAS]
Details: for IC50: curve of first compound; for viability, T/C: stronger effect = lower value; active means viability on the fitted dose curve at most 10% of control; inactive means the rest
Source text: RAS pathway inhibitors in Combinations in Complex Spheroids
A high-throughput screen of multi-cell type tumor spheroids was designed to identify active combinations of RAS pathway inhibitors and targeted small molecules. Complex spheroids include a stromal component modeled by human endothelial cells (HUVEC) and fibroblasts modeled by human mesenchymal stem cells (MSCs). The concentration ranges selected for each drug and investigational agent were based upon clinically achievable concentrations if the clinical Cmax of the agent was known.
Compounds. The drugs and investigational agents: abemaciclib (NSC768073), cobimetinib (NSC768068), divarasib (GDC6063, NSC841802), docetaxel (NSC628503), GDC-1971 (RLY-1971, NSC841576), gemcitabine (NSC613327), inavolisib (NSC800729), ipatasertib (NSC767898), KB-0742 (NSC834161), MRTX-1133 (NSC836407), osimertinib (NSC779217), RMC-4630 (NSC839698), RMC-6236 (NSC851965), RMC-6291 (NSC852671), Ro-3306 (NSC812927), sapanisertib (NSC764658), SN-38 (NSC673596), staurosporine (NSC755774), SY5609 (NSC837396), and tovorafenib (DAY101, NSC766906), were obtained from the National Cancer Institute (NCI) Developmental Therapeutics Program Chemical Repository. The FDA-approved anticancer drug set is available from the NCI Developmental Therapeutics Program. […] The stock solutions were prepared in dimethyl sulfoxide (DMSO, Sigma-Aldrich, St. Louis, MO, cat. D2650) at 800-fold the tested concentration and stored at -70 degrees C prior to their use. All drugs and investigational agents were tested over a range starting from a high concentration at or near the clinical Cmax and decreasing in half-log increments. If the clinical Cmax for an agent had not been determined, the highest concentration tested was 10 microM.
Cell Culture. All cells were maintained in an incubator at 37 degrees C and 5% CO2 with 95% humidity. The PDC lines were cultured according to standard operating procedures established by the NCI PDMR. All PDCs were thawed and cultured in Matrigel-coated flasks prepared with a working solution of 1X Ham's F-12 nutrient mix, without supplementation (Invitrogen, Waltham, MA, cat. 11765054), 100 U/mL penicillin-streptomycin (Invitrogen, cat. 15140122), and 2.5% Matrigel (Corning Inc., Corning, NY, cat. 354248) for the first three passages. The 362531-283-R-J2-PDC and 782815-120-R-J1-PDC lines were cultured in 6C/Colon 1B media, which includes advanced DMEM/F-12 (Thermo Fisher Scientific, cat. 12634028), 10 mM HEPES (Thermo Fisher Scientific, cat. 15630080), 1X GlutaMAX supplement (Thermo Fisher Scientific, cat. 35050061), 0.1 mg/mL primocin (InvivoGen, San Diego, CA, cat. ant-pm-2), 10% defined fetal bovine serum, heat inactivated (HyClone Laboratories Inc., Logan, UT, cat. SH30070.03HI), 50% L-WRN conditioned media (ATCC, cat. CRL-3276), 1.25 mM N-Acetyl-L-cysteine (Sigma-Aldrich, cat. A9165), 10 mM nicotinamide (Sigma-Aldrich, cat. N0636), 1X B-27 supplement (Thermo Fisher Scientific, cat. 17504044), 1X N-2 supplement (Thermo Fisher Scientific, cat. 17502048), 50 ng/mL human EGF (Thermo Fisher Scientific, cat. PHG0311), and 10 microM Y-27632 dihydrochloride (Tocris Bioscience, cat. 1254). The K12877-001-R-J1-PDC line was cultured in 6I media, which includes all 6C/Colon 1B media plus 10 ng/mL human FGF-10 (PeproTech, cat. 100-26), 1 ng/mL human FGF-2 (PeproTech, cat. 100-18B), 1 µM prostaglandin E2 (Tocris Bioscience, cat. 2296), […] hydrocortisone (Sigma-Aldrich, cat. H4001), and […] bovine insulin (Sigma-Aldrich, cat. I6634). The K86415-001-R-J1-PDC line was cultured in 6D media, which includes all 6C/Colon 1B media components minus the L-WRN conditioned media. The 485176-168-R4-J1-PDC was cultured in PANC media, which includes all 6C/Colon 1B media plus 100 ng/mL human FGF-10 (PeproTech, cat. 100-26), 500 nM SB-431542 (Selleckchem, cat. S1067), and 10 nM gastrin (Tocris Bioscience, cat. 3006). […]
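Further: spheroids exposed to compounds for 7 days before viability read.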

Nc1ccn(C2OC(CO)C(O)C2(F)F)c(=O)n1 (centres undefined) + C=CC(=O)N1CCN(c2nc(OCC3CCCN3C)nc3c(F)c(-c4nc(N)cc(C)c4C(F)(F)F)c(Cl)cc23)C(C)C1
4.45 nM: IC50 (second compound 0.316 µM)
5.06 nM: IC50 (second compound 0.00316 µM)
inactive: viability, T/C (second compound 0.00316 µM, first compound 0.00316 µM) 73.3% | viability, T/C (second compound 0.00316 µM, first compound 0.01 µM) 16.4% | viability, T/C (second compound 0.00316 µM, first compound 0.0316 µM) 12.9% | viability, T/C (second compound 0.00316 µM, first compound 0.1 µM) 10.3% | viability, T/C (second compound 0.00316 µM, first compound 0.316 µM) 11.1% | viability, T/C (second compound 0.00316 µM, first compound 1 µM) 11.5% | viability, T/C (second compound 0.01 µM, first compound 0.00316 µM) 73.9% | viability, T/C (second compound 0.01 µM, first compound 0.01 µM) 14.4% | viability, T/C (second compound 0.01 µM, first compound 0.0316 µM) 10.9% | viability, T/C (second compound 0.01 µM, first compound 0.1 µM) 10.2% | viability, T/C (second compound 0.01 µM, first compound 0.316 µM) 9.07% | viability, T/C (second compound 0.01 µM, first compound 1 µM) 11% | viability, T/C (second compound 0.0316 µM, first compound 0.00316 µM) 65.2% | viability, T/C (second compound 0.0316 µM, first compound 0.01 µM) 17.3% | viability, T/C (second compound 0.0316 µM, first compound 0.0316 µM) 13.5% | viability, T/C (second compound 0.0316 µM, first compound 0.1 µM) 10.2% | viability, T/C (second compound 0.0316 µM, first compound 0.316 µM) 10.7% | viability, T/C (second compound 0.0316 µM, first compound 1 µM) 12.2% | viability, T/C (second compound 0.1 µM, first compound 0.00316 µM) 64.1% | viability, T/C (second compound 0.1 µM, first compound 0.01 µM) 15.2% | viability, T/C (second compound 0.1 µM, first compound 0.0316 µM) 11.7% | viability, T/C (second compound 0.1 µM, first compound 0.1 µM) 11.3% | viability, T/C (second compound 0.1 µM, first compound 0.316 µM) 10.1% | viability, T/C (second compound 0.1 µM, first compound 1 µM) 11.8% | viability, T/C (second compound 0.316 µM, first compound 0.00316 µM) 64.3% | viability, T/C (second compound 0.316 µM, first compound 0.01 µM) 16% | viability, T/C (second compound 0.316 µM, first compound 0.0316 µM) 13.1% | viability, T/C (second compound 0.316 µM, first compound 0.1 µM) 11.8% | viability, T/C (second compound 0.316 µM, first compound 0.316 µM) 11.8% | viability, T/C (second compound 0.316 µM, first compound 1 µM) 12.9% | viability, T/C (second compound 1 µM, first compound 0.00316 µM) 45.3% | viability, T/C (second compound 1 µM, first compound 0.01 µM) 18.9% | viability, T/C (second compound 1 µM, first compound 0.0316 µM) 17.2% | viability, T/C (second compound 1 µM, first compound 0.1 µM) 14.1% | viability, T/C (second compound 1 µM, first compound 0.316 µM) 13.5% | viability, T/C (second compound 1 µM, first compound 1 µM) 14.8%
< 3.16 nM: IC50 (second compound 1 µM)
4.41 nM: IC50 (second compound 0.1 µM)
5.02 nM: IC50 (second compound 0.01 µM)
4.55 nM: IC50 (second compound 0.0316 µM)

CC1(O)CCCC1n1c(=O)c(C(F)F)cc2cnc(NC3CCN(S(C)(=O)=O)CC3)nc21 (centres undefined) + CCn1c(-c2cc(N3CCN(C)CC3)cnc2C(C)OC)c2c3cc(ccc31)-c1csc(n1)CC(NC(=O)C1CC1C)C(=O)N1CCCC(N1)C(=O)OCC(C)(C)C2
1080 nM: IC50 (second compound 0.003 µM)
< 31.6 nM: IC50 (second compound 0.00949 µM) | IC50 (second compound 0.03 µM) | IC50 (second compound 0.0949 µM) | IC50 (second compound 0.3 µM)
inactive: viability, T/C (second compound 0.000949 µM, first compound 0.0316 µM) 124% | viability, T/C (second compound 0.000949 µM, first compound 0.1 µM) 104% | viability, T/C (second compound 0.000949 µM, first compound 0.316 µM) 108% | viability, T/C (second compound 0.000949 µM, first compound 1 µM) 86.7% | viability, T/C (second compound 0.000949 µM, first compound 3.16 µM) 61.8% | viability, T/C (second compound 0.003 µM, first compound 0.0316 µM) 116% | viability, T/C (second compound 0.003 µM, first compound 0.1 µM) 107% | viability, T/C (second compound 0.003 µM, first compound 0.316 µM) 60.8% | viability, T/C (second compound 0.003 µM, first compound 1 µM) 55.4% | viability, T/C (second compound 0.003 µM, first compound 3.16 µM) 36.9% | viability, T/C (second compound 0.00949 µM, first compound 0.0316 µM) 47.4% | viability, T/C (second compound 0.00949 µM, first compound 0.1 µM) 41% | viability, T/C (second compound 0.00949 µM, first compound 0.316 µM) 23.6% | viability, T/C (second compound 0.00949 µM, first compound 1 µM) 20.1% | viability, T/C (second compound 0.00949 µM, first compound 3.16 µM) 14% | viability, T/C (second compound 0.03 µM, first compound 0.0316 µM) 15.2% | viability, T/C (second compound 0.03 µM, first compound 0.1 µM) 11.5% | viability, T/C (second compound 0.03 µM, first compound 0.316 µM) 10.6%
active: viability, T/C (second compound 0.000949 µM, first compound 10 µM) 1.35% | viability, T/C (second compound 0.003 µM, first compound 10 µM) 0.72% | viability, T/C (second compound 0.00949 µM, first compound 10 µM) 0.4% | viability, T/C (second compound 0.03 µM, first compound 1 µM) 9.98% | viability, T/C (second compound 0.03 µM, first compound 3.16 µM) 7.39% | viability, T/C (second compound 0.03 µM, first compound 10 µM) 0.34% | viability, T/C (second compound 0.0949 µM, first compound 0.0316 µM) 9.76% | viability, T/C (second compound 0.0949 µM, first compound 0.1 µM) 7.17% | viability, T/C (second compound 0.0949 µM, first compound 0.316 µM) 6.71% | viability, T/C (second compound 0.0949 µM, first compound 1 µM) 6.53% | viability, T/C (second compound 0.0949 µM, first compound 3.16 µM) 5.94% | viability, T/C (second compound 0.0949 µM, first compound 10 µM) 0.31% | viability, T/C (second compound 0.3 µM, first compound 0.0316 µM) 6.48% | viability, T/C (second compound 0.3 µM, first compound 0.1 µM) 6.07% | viability, T/C (second compound 0.3 µM, first compound 0.316 µM) 5.61% | viability, T/C (second compound 0.3 µM, first compound 1 µM) 5.93% | viability, T/C (second compound 0.3 µM, first compound 3.16 µM) 5.05% | viability, T/C (second compound 0.3 µM, first compound 10 µM) 0.34%
3790 nM: IC50 (second compound 0.000949 µM)
